Here are results for three compounds from patent publication US20250205199A1, “5-METHOXY-N,N-[…][…] THE TREATMENT OF SOCIAL/EMOTIONAL […] DETACHMENT” (GH RESEARCH IRELAND LIMITED, priority 2022, published 2025).

For data set [1] the following is noted: oral; cited from earlier work.
Data set [2] can be described thus: Pharmacokinetics of 5-MeO-DMT and bufotenine after inhalation. The class given is in vivo, human. The following applies: uptitration scheme. The method, then: This applies over the whole dose range tested (6 mg, 12 mg, 18 mg). […] Uptitration as disclosed herein will not lead to accumulation and thus not to higher plasma concentrations, for instance, 10 minutes, 2 hours, or 3 hours after administration.
Blood samples were obtained at 1; 2; 4; 7; 10; 15; 20; 30; 45 min and 1; 1.5; 2; 3; 4 hours after administration.
PK parameters were generated by algebraic analysis of the concentration versus time plots for each individual. The analysis was carried out using the software Phoenix WinNonlin 6.3.

Data set [3] concerns patients with treatment resistant bipolar depression. The following applies: single 0.5 mg·kg^−1 infusion; cited from earlier work.

Structures are written as SMILES.

Turning to `CCN(CC)C(=O)[C@@H]1C=C2c3cccc4[nH]cc(c34)C[C@H]2N(C)C1` [LSD, lysergic acid diethylamide], the “Duration of acute psychedelic effects” value in data set [1] is “several hours”.

As to `CN(C)CCc1c[nH]c2ccc(O)cc12` [bufotenine], the “Bufotenine concentrations when subjects receiving an uptitration scheme were included” value in data set [2] is recorded as “Substantially similar observations”. With `CNC1(c2ccccc2Cl)CCCCC1=O` (stereo not shown) [ketamine], in data set [3], the “Duration of the anti-anhedonic effect” value was “up to 14 days” and the “Time until decrease of anhedonia took effect” value is no more than 40 min.
